Results from US20130338184A1, “2-AMINO-NAPHTHYRIDINE DERIVATIVES” (priority 2011, published 2013).

Assay: Metabolic stability in human liver S9 fractions
Assay type: in vitro ADME
Conditions: for % Δ of % parent remaining (relative to S): relative to Pagoclone (S); for % Δ of % parent remaining (relative to racemic): relative to Pagoclone (racemic)
Protocol: Materials: Human liver S9 (20 mg/mL) were obtained from Xenotech, LLC (Lenexa, Kans.). (3-nicotinamide adenine dinucleotide phosphate, reduced form (NADPH), magnesium chloride (MgCl2), and dimethyl sulfoxide (DMSO) were purchased from Sigma-Aldrich.
Determination of Metabolic Stability: 10 mM stock solutions of test compounds were prepared in DMSO. The 10 mM stock solutions were diluted to 0.1 mM or 1.0 mM in acetonitrile (ACN). The 20 mg/mL human liver […] were diluted to 2.5 mg/mL in 0.1 M potassium phosphate buffer, pH 7.4, containing 3 mM MgCl2 and incubated with alamethicin at 10 μg/mL for 15 minutes on ice. The diluted S9 were added to wells of a 96-well deep-well polypropylene plate in triplicate. 15 μL of the 0.1 mM or 1.0 mM test compound was added to the S9 and the mixture was pre-warmed for 10 minutes. Reactions were initiated by addition of pre-warmed NADPH solution. […] The reaction mixtures were incubated at 37° C., and 50 μL aliquots were removed at 0 and 60 minutes and added to shallow-well 96-well plates which contained 50 μL of ice-cold ACN with internal standard to stop the reactions. The plates were stored at 4° C. for 20 minutes after which 100 μL of water was added to the wells of the plate before centrifugation to pellet precipitated proteins. Supernatants were transferred to another 96-well plate and analyzed for amounts of parent remaining by LC-MS/MS using an Applied Bio-systems API 4000 mass spectrometer.
Data analysis: The in vitro tu2s for test compounds were calculated from the slopes of the linear regression of % parent remaining (1n) vs incubation time relationship.
k=−[slope of linear regression of % parent remaining(ln) vs incubation time]
Data analysis was performed using Microsoft Excel Software.

[1] = human liver S9 fractions, 1 μM tested compound
[2] = human liver S9 fractions, 10 μM tested compound

Row | Compound | % Parent remaining at 1 hr [1] | % Parent remaining at 1 hr [2] | % Δ of % parent remaining (relative to S) (1 μM tested compound) | % Δ of % parent remaining (relative to racemic) (1 μM tested compound) | % Δ of % parent remaining (relative to S) (10 μM tested compound) | % Δ of % parent remaining (relative to racemic) (10 μM tested compound) | metabolic stability compared to pagoclone and (S)-pagoclone (human liver S9 fractions, summary in words)
1 | CC(C)CCC(=O)CC1c2ccccc2C(=O)N1c1ccc2ccc(Cl)nc2n1 [Pagoclone (S), 2-(7-chloro-1,8-naphthyridin-2-yl)-3-(5-methyl-2-oxohexyl)isoindolin-1-one, reference compound] | 41 ± 1.0% | 23 ± 3.9% | – | – | – | – | –
2 | [2H]C([2H])(C(=O)C([2H])([2H])C([2H])([2H])C([2H])(C([2H])([2H])[2H])C([2H])([2H])[2H])C1c2ccccc2C(=O)N1c1ccc2ccc(Cl)nc2n1 (racemic) [Rac-141, (+/−)-2-(7-Chloro-1,8-naphthyridin-2-yl)-3-(5-(d3-methyl)-2-oxo-1,1,3,3,4,4,5,6,6,6-d10-hexyl)isoindolin-1-one] | 60 ± 8.4% | 37 ± 2.7% | 46% | 62% | 61% | 236% | substantially greater metabolic stability
3 | CC(C)CCC(=O)CC1c2ccccc2C(=O)N1c1ccc2ccc(Cl)nc2n1 (racemic) [Pagoclone (racemic), 2-(7-chloro-1,8-naphthyridin-2-yl)-3-(5-methyl-2-oxohexyl)isoindolin-1-one, reference compound] | 37 ± 3.8% | 11 ± 1.2% | – | – | – | – | –
